Data published in patent US7329401B2, “Cyclooxygenase-2 selective agents useful as imaging probes and related methods” (The Regents of the University of California, priority 2002, dated 2008).

Tests used:
cyclooxygenase-2 = target: T1, cyclooxygenase-2 (Mus musculus, UniProt Q05769); experiment: Cell-based assay for cyclooxygenase-2 inhibition (PGE2 ELISA, LPS-treated RAW264.7 macrophages); conditions: lipopolysaccharide-treated murine RAW264.7 macrophages
T1 sequence (Q05769 18-604): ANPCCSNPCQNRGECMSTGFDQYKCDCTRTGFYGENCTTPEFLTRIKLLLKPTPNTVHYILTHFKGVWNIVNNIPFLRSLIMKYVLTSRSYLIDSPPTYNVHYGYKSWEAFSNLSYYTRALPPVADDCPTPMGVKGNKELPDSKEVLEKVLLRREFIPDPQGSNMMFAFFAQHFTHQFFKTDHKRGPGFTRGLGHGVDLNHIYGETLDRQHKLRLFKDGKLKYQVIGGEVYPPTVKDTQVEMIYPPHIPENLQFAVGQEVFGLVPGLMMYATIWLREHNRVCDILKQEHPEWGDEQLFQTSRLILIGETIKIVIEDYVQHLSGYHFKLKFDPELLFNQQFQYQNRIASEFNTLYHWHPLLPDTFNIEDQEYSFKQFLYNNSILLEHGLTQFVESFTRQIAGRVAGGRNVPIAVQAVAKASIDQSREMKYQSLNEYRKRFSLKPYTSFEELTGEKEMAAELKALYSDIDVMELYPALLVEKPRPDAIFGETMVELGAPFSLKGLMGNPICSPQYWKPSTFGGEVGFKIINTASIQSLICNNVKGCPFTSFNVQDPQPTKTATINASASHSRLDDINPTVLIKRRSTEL
Protocol: RAW 264.7 cells are a murine macrophage cell line that can be induced to express cyclooxygenase-2 by exposure to bacterial endotoxin/lipopolysaccharide (LPS). For this assay, RAW964.7 cells were plated at 90% confluence in 12-well cell culture plates. After attachment, cells were switched to 1 mL of endotoxin-free Dulbecco's Modified Eagle's Medium with high glucose and 0.5% calf serum overnight. Thirty minutes prior to induction of cyclooxygenase-2 expression, varying concentrations of the test compound (ranging from 20 nM to 0.3 nM) were added. NS-398 (a known cyclooxygenase-2 inhibitor) was used at 10 μM, as a control. Inhibitors or vehicle were added to the cultures by removing the existing culture medium and adding fresh medium containing inhibitor or vehicle. Cells were treated with LPS (final concentration, 10 ng per mL) to induce cyclooxygenase-2 expression. After eight hours, the media were collected from the cultures and frozen on dry ice. Cells were harvested and lysed. Protein determinations were performed to normalize PGE2 values to total protein in each well. PGE2 ELISA assays were performed with a commercial kit (Amersham).
The assay was carried out using lipopolysaccharide-treated murine RAW264.7 macrophages as described previously.

- melting point: 192 to 195 °C (dec.)
- IC50 (cyclooxygenase-2): 1.25 to 2.5 nM
SMILES: Cc1onc(-c2ccccc2)c1-c1ccc(S(N)(=O)=O)c(F)c1 [compound 4, 2-Fluoro-4-(5-methyl-3-phenylisoxazol-4-yl)benzenesulfonamide]
